{"source": "patent US20110079775A1", "about": "“Solution Processable Organic Semiconductors” (priority 2008, published 2011)", "format": "physicochemical", "method": "The solubility of B4MP-TIPS-An, which was synthesized in Example 1, was measured in various solvents at room temperature. This small molecule semiconductor had moderate solubility in n-butylbenzene (about 1.0 weight percent) and good solubility in dichlorobenzene (greater than 6.0 weight percent) and xylene (about 3.5 weight percent). The weight percent is based on the total solution weight."}
{"smiles": "COc1ccc(-c2ccc3c(C#C[Si](C(C)C)(C(C)C)C(C)C)c4cc(-c5ccc(OC)cc5)ccc4c(C#C[Si](C(C)C)(C(C)C)C(C)C)c3c2)cc1", "note": "[Example B4MP-TIPS-An, 2,6-Bis(4-methoxy-phenyl)-9,10-bis-[(triisopropylsilyl)ethynyl]anthracene]", "values": [{"measurement": "solubility in dichlorobenzene", "value": "greater than 6.0 weight percent"}, {"measurement": "solubility in n-butylbenzene", "value": "about 1.0 weight percent"}, {"measurement": "solubility in xylene", "value": "about 3.5 weight percent"}]}
